Results taken from patent US20110130704A1, “COMBINATION OF A LIGHT RAY AND A LIPASE-BIOCONVERTIBLE COMPOUND FOR IMPROVING SKIN AND/OR HAIR APPEARANCE” (L'OREAL, priority 2008, published 2011).

Experiments:
[1] = tested on: lipase (reference L3126 from Sigma); assay: Hydrolysis of ascorbyl palmitate by lipase with or without blue light radiation (palmitic acid released); format: biochemical; settings: for Test - Control % of variation versus control: light 400-510 nm vs no light; for Test (in ppm palmitic acid released in reaction medium) / Control (in ppm palmitic acid released in reaction medium): lipase + ascorbyl palmitate; for Test (in ppm palmitic acid released in reaction medium): light 400-510 nm; for Control (in ppm palmitic acid released in reaction medium): no light exposure
Procedure: The lipase (reference L3126 from Sigma) is exposed with stirring to a light radiation with a predominant wavelength of 400-510 nm (FIG. 2: spectrum of blue light used, intensity 0.5 mW/cm^2) in the presence of ethyl lactate (from Sigma or Fluka) according to the set-up described in FIG. 1. The same protocol as that described in Example 1 is carried out, with the replacement of ethyl lactate by ascorbyl palmitate. In the presence of lipase, the ascorbyl palmitate hydrolyses to give palmitic acid and ascorbic acid. The lipase is exposed with stirring to the said radiation with a predominant wavelength ranging from 400 to 510 nm (blue spectrum) in the presence of ascorbyl palmitate. An increase in the hydrolysis proportional to the time of exposure of the lipase to the said radiation is found, as presented in the following table: […]

[2] = tested on: lipase (reference L3126 from Sigma); assay: Hydrolysis of ethyl lactate by lipase with or without blue light radiation (lactic acid formed is determined); format: biochemical; settings: for Test - Control % of variation versus control: light 400-510 nm vs no light; for Test (ppm lactic acid in reaction medium) / Control (ppm lactic acid in reaction medium): lipase + ethyl lactate; for Test (ppm lactic acid in reaction medium): light 400-510 nm; for Control (ppm lactic acid in reaction medium): no light exposure
Excerpt: In the presence of lipase, ethyl lactate is hydrolysed to give L-lactate (which reacts with water to give lactic acid) and ethanol. The lactic acid thus formed is quantitatively determined.
The lipase (reference L3126 from Sigma) is exposed with stirring to a light radiation with a predominant wavelength of 400-510 nm (FIG. 2: spectrum of blue light used, intensity 0.5 mW/cm^2) in the presence of ethyl lactate (from Sigma or Fluka) according to the set-up described in FIG. 1.
The control corresponds to bringing together the lipase and the ethyl lactate under the same conditions, without exposure to the said light radiation. An increase in the hydrolysis of the ethyl lactate, with respect to the control, is found.

## CCCCCCCCCCCCCCCC(=O)OC[C@H](O)[C@H]1OC(=O)C(O)=C1O [ascorbyl palmitate]
[1]; reaction time 20 min
  Test - Control % of variation versus control: 1.71%
  Test (in ppm palmitic acid released in reaction medium): 63.96 ppm
  Control (in ppm palmitic acid released in reaction medium): 62.89 ppm
[1]; reaction time 40 min
  Test - Control % of variation versus control: 2.95%
  Test (in ppm palmitic acid released in reaction medium): 77.15 ppm
  Control (in ppm palmitic acid released in reaction medium): 74.87 ppm
[1]; reaction time 60 min
  Test - Control % of variation versus control: 9.92%
  Test (in ppm palmitic acid released in reaction medium): 98.99 ppm
  Control (in ppm palmitic acid released in reaction medium): 89.16 ppm
[1]; reaction time 90 min
  Test - Control % of variation versus control: 11.72%
  Test (in ppm palmitic acid released in reaction medium): 119.51 ppm
  Control (in ppm palmitic acid released in reaction medium): 105.5 ppm

## CCOC(=O)C(C)O (stereo not drawn) [ethyl lactate]
[2]; reaction time 20 min
  Test - Control % of variation versus control: 5.16%
  Control (ppm lactic acid in reaction medium): 0.45 ppm
[2]; reaction time 40 min
  Test - Control % of variation versus control: 9.08%
  Control (ppm lactic acid in reaction medium): 0.62 ppm
[2]; reaction time 90 min
  Test - Control % of variation versus control: 17.94%
  Control (ppm lactic acid in reaction medium): 0.69 ppm
[2]; 0.5 mW/cm^2, reaction time 20 min
  Test (ppm lactic acid in reaction medium): 0.48 ppm
[2]; 0.5 mW/cm^2, reaction time 40 min
  Test (ppm lactic acid in reaction medium): 0.69 ppm
[2]; 0.5 mW/cm^2, reaction time 90 min
  Test (ppm lactic acid in reaction medium): 0.84 ppm
